Earlier results on two compounds are cited in patent US11229703B2, “Radiotherapy improvements” (NOXOPHARM LIMITED, priority 2016, dated 2022).

Data set [1] concerns cancer, especially metastatic disease involving solid tumours. Conditions: compound alone, various clinical trials.
For data set [2], the system named is hormone refractory prostate cancer. Particulars: males with hormone refractory prostate cancer given idronoxil ranging from 20 to 400 mg; 6 months from treatment.

The structures appear in SMILES notation.

Take `O=c1c(-c2ccc(O)cc2)coc2cc(O)cc(O)c12` [genestein, reference compound]: the “complete or partial response to cancer” value in data set [1] is “unable to provide either a complete or partial response”.
Consider `Oc1ccc(C2=Cc3ccc(O)cc3OC2)cc1` [idronoxil, 2H-1-Benzopyran-7-0,1,3-(4-hydroxyphenyl)], for which, in data set [1], the “complete or partial response to cancer” value is “unable to provide either a complete or partial response”. In addition, the disease progression entry in data set [2] was “disease had progressed in most individuals by 6 months”.
